{"source": "paper PMC12495087", "about": "(ESMO Open, 2025)", "experiment": "phase I study: plasma pharmacokinetics", "format": "in vivo, human", "data": [{"compound": "COc1cc2cc(-c3ccc(CC(=O)Nc4cc(C(C)(C)C(F)(F)F)no4)cn3)cnc2cc1OC", "note": "[BOS172738]", "values": [{"measurement": "plasma concentrations remained quantifiable through", "setting": "after dosing, cycle 1 day 1 and day 15", "result": "≥ 24", "unit": "h"}, {"measurement": "half-life", "setting": "human, plasma, oral", "result": "41.9 to 84.1", "unit": "h"}, {"measurement": "Tmax", "setting": "human, plasma, oral, cycle 1 day 1, range across all dose levels", "result": "3 to 10", "unit": "h"}, {"measurement": "Tmax", "setting": "human, plasma, oral, cycle 1 day 15, range across dose levels", "result": "1 to 3.1", "unit": "h"}, {"measurement": "steady state reached by", "setting": "most treatment groups, based on mean trough concentration and effective t½", "result": "≤ 15", "unit": "days"}]}]}
